Ends that are not written are not given here. Peptide text beside a SMILES is read from it. * marks the point of attachment. Biotin = O=C1N[C@H]2[C@H](CS[C@H]2CCCCC(=O)*)N1

For 14 compounds, Classification results are on record in patent US20050282743A1, “Molecular interactions in cells” (Arbor Vita Corporation, priority 2001, published 2005).

Common to all, as to assay: G' assay (10 uM PL peptide), results of TABLE 7 and TABLE 12
Holding throughout (assay type): binding

For test [1], the target named is T1, PDZ protein (GST-PDZ fusion) (Homo sapiens, UniProt O15085).
T1 construct: made in house; host or cells: E. coli (DH5alpha, BL21 or JM109)
To be noted: PDZ KIAA0380, PDZ Domain 1. Summed up: (§1)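 Biotinylated PL peptides at 10 uM (vs 20 uM in G^0 assay) bound to GST-PDZ fusions; PDZ protein at 5 ug/ml unless another concentration listed. Bound peptide read as A450 nm, classified 0–5 (0 = A450 0; 5 = A450 >4 repeated).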

Test [2] concerns the target T2, PDZ protein (GST-PDZ fusion) (Homo sapiens, UniProt O14908).
T2 construct: made in house; host or cells: E. coli (DH5alpha, BL21 or JM109)
T2 sequence (O14908 1-333): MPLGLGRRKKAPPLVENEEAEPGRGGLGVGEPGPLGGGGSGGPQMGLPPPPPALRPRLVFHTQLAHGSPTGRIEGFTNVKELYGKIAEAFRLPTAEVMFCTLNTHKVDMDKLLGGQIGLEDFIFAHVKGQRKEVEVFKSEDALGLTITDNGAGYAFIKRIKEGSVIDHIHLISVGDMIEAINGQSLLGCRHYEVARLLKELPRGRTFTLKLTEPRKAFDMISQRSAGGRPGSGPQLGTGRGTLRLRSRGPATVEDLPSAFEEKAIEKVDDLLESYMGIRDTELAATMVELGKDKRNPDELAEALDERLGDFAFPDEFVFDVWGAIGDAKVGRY
Conditions: PDZ TAX IP2, PDZ Domain 1. Summed up: as §1

For test [3], the target named is T3, PDZ protein (GST-PDZ fusion) (Homo sapiens, UniProt Q96JY6).
T3 construct: made in house; host or cells: E. coli (DH5alpha, BL21 or JM109)
T3 sequence (Q96JY6 1-352): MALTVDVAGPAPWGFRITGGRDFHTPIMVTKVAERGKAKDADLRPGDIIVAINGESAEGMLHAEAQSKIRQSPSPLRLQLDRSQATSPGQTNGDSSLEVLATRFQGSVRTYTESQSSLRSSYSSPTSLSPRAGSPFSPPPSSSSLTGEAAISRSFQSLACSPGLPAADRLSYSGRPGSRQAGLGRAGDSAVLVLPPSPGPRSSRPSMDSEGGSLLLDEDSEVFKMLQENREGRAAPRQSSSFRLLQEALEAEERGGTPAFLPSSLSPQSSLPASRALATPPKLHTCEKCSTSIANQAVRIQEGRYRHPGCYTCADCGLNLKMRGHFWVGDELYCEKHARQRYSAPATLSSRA
To be noted: PDZ LIM-Mystique, PDZ Domain 1. The gist of the method:
as §1

In test [4] the target is T4, PDZ protein (GST-PDZ fusion) (Homo sapiens, UniProt O14641).
T4 construct: made in house; host or cells: E. coli (DH5alpha, BL21 or JM109)
T4 sequence (O14641 1-736): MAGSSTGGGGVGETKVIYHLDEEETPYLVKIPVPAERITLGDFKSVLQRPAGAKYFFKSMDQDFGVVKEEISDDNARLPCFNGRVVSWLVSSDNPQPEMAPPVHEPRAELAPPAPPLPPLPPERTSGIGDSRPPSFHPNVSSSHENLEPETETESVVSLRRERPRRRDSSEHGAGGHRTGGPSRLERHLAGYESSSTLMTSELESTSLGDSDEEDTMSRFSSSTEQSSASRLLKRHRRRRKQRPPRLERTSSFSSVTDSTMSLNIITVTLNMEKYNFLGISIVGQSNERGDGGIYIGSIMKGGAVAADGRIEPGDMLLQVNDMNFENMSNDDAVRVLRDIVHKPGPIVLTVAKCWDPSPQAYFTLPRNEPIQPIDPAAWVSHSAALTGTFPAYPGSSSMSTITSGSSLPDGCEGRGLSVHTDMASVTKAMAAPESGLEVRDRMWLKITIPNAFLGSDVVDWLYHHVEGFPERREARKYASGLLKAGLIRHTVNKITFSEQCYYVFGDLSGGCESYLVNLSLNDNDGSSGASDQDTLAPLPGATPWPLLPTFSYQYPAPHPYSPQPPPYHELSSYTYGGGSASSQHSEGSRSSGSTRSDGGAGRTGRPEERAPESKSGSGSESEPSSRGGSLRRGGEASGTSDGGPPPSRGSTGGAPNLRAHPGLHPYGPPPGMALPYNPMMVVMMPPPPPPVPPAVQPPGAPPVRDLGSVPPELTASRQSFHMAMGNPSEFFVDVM
Conditions: PDZ DVL2, PDZ Domain 1. The gist of the method:
as §1

Test [5] has as its target T5, PDZ protein (GST-PDZ fusion) (Homo sapiens, UniProt Q8TEW0).
T5 construct: made in house; host or cells: E. coli (DH5alpha, BL21 or JM109)
To be noted: PDZ PAR3, PDZ Domain 3. The gist of the method: as §1

Test [6] concerns the target T6, PDZ protein (GST-PDZ fusion) (Homo sapiens, UniProt Q9BYB0).
T6 construct: made in house; host or cells: E. coli (DH5alpha, BL21 or JM109)
To be noted: PDZ SHANK3, PDZ Domain 1. The gist of the method:
as §1

Test [7] has as its target T7, PDZ protein (GST-PDZ fusion) (Homo sapiens, UniProt Q9HD26).
T7 construct: made in house; host or cells: E. coli (DH5alpha, BL21 or JM109)
To be noted: PDZ PIST, PDZ Domain 1. The gist of the method: as §1

T6 sequence (Q9BYB0 whole entry, the tested form may be a part): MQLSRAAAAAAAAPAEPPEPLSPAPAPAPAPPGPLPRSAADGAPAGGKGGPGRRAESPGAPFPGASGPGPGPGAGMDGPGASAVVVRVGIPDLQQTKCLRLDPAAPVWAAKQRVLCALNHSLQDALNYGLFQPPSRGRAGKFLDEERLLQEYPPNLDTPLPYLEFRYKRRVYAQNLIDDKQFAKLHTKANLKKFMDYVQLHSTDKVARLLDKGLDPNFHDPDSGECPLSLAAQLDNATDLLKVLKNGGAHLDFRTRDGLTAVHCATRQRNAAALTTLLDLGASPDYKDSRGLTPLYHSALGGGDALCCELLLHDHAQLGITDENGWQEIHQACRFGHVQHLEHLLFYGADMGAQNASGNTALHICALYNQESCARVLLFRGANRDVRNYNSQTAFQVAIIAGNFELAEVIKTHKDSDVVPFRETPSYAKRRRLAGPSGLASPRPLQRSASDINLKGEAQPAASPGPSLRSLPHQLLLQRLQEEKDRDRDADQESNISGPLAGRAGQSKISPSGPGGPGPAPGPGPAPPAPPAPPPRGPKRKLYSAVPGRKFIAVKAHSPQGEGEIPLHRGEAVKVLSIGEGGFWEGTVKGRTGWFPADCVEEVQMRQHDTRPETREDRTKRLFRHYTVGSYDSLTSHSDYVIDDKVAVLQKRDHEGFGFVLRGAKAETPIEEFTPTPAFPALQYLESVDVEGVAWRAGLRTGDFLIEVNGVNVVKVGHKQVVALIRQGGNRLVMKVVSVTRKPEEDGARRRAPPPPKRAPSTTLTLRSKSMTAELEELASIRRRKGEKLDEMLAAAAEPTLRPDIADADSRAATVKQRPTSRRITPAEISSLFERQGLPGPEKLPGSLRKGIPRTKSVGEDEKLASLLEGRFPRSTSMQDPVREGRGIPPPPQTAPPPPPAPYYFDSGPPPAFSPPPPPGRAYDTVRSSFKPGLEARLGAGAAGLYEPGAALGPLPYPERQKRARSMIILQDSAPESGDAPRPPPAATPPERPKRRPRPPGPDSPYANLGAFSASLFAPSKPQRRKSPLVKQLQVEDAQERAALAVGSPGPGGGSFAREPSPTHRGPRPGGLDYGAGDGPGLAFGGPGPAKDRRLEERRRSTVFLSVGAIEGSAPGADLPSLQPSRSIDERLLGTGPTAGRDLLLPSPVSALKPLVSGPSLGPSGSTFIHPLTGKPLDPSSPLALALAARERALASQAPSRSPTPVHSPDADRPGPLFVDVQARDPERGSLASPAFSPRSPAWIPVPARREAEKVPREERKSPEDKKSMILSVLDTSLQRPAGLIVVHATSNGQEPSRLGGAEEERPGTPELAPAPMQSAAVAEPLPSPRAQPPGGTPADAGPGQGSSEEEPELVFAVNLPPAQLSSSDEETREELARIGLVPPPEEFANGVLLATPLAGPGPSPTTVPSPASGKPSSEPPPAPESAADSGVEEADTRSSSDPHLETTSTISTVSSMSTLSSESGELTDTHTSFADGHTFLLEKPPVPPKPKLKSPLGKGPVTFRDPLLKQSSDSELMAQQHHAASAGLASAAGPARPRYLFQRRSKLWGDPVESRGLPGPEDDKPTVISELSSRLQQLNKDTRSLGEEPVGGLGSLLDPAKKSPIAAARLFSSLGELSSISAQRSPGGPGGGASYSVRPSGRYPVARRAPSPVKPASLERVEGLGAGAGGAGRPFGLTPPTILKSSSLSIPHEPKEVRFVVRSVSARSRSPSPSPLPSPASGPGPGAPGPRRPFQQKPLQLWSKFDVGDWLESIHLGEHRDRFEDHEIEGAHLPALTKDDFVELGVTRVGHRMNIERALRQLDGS
T5 sequence (Q8TEW0 whole entry, the tested form may be a part): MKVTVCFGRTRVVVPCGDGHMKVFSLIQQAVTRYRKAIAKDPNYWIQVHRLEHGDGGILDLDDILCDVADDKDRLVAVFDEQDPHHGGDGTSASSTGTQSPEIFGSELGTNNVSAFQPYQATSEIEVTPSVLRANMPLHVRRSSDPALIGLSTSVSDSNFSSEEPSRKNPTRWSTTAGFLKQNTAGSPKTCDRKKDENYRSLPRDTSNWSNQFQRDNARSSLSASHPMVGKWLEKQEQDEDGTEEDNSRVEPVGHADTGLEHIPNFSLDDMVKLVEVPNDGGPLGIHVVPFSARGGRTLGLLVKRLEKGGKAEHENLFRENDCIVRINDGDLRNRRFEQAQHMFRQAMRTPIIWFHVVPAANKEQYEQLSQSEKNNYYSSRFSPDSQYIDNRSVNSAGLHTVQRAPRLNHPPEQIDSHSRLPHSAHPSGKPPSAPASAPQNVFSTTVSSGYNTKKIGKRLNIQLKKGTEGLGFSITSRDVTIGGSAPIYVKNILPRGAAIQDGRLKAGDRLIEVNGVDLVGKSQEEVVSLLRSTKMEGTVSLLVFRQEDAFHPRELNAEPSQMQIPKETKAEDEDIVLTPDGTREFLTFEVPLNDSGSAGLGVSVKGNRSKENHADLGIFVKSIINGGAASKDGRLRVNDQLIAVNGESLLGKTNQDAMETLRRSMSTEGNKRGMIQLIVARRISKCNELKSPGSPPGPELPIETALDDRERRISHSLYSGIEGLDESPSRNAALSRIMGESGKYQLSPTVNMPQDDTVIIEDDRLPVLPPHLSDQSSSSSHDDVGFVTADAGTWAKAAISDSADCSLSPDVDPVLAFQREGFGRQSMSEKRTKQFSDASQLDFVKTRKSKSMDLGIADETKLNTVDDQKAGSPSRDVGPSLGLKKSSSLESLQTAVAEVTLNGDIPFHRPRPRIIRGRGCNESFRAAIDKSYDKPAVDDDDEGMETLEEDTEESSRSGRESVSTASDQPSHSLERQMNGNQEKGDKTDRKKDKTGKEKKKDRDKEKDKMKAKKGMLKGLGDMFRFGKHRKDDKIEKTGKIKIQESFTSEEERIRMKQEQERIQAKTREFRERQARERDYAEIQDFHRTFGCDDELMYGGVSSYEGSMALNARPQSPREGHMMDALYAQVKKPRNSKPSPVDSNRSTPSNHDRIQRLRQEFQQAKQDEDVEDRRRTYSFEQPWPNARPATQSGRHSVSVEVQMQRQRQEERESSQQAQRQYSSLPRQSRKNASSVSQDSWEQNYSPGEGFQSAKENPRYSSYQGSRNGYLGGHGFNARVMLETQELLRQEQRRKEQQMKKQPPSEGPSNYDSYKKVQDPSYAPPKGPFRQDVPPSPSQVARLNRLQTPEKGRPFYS
T1 sequence (O15085 whole entry, the tested form may be a part): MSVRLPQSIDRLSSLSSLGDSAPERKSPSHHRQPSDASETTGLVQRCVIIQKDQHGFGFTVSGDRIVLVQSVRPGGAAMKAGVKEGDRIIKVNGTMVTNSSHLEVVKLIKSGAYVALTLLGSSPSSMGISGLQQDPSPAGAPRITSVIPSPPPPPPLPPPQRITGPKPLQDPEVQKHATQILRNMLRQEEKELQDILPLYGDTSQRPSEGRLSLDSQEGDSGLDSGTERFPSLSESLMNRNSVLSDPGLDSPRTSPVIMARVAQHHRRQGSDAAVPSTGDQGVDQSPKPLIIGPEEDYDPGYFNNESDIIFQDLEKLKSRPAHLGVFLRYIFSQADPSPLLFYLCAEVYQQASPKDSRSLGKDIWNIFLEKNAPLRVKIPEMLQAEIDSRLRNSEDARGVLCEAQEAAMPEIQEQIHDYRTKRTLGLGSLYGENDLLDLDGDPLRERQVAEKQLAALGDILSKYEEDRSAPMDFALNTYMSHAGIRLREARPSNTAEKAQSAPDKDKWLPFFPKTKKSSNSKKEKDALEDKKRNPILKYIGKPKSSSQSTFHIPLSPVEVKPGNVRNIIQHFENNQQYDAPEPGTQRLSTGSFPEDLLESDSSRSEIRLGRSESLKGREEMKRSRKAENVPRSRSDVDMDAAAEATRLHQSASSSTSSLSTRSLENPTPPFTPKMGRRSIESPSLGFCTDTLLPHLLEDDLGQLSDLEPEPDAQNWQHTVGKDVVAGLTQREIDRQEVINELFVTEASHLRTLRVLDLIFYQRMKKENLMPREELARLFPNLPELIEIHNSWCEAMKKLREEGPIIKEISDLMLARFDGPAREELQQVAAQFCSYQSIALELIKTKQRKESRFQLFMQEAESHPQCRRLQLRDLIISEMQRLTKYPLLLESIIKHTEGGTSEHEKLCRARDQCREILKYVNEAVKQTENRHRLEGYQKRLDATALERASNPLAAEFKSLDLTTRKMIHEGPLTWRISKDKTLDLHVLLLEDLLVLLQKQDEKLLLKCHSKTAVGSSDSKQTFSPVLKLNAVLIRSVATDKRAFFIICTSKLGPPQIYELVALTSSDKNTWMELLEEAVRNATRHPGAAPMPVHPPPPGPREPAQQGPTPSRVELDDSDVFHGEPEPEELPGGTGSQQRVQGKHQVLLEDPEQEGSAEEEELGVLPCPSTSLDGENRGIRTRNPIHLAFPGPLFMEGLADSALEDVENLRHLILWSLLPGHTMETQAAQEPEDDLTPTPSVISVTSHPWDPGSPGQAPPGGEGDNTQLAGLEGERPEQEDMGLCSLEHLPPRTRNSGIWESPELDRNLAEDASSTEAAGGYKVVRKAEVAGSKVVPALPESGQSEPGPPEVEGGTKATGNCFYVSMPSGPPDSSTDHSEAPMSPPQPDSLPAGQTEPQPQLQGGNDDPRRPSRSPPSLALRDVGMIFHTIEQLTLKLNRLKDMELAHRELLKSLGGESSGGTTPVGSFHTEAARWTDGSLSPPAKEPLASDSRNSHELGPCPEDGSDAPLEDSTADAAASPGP

TQGFPGPATWRRISSLESEV: the Classification in test [1] is listed as 1 (A450 nm 0-1); in test [2], 4 (A450 nm 3-4); in test [3] it was 4 (A450 nm 3-4).

As for CKR5_HUMAN (ERASSVYTRSTGEQEISVGL), in test [2], the Classification is on record as 1 (A450 nm 0-1).

Take “ALVLIAFCIIRRRPSAYQAL (Biotin-ALVLIAFCIIRRRPSAYQAL) [CD68]”: the Classification in test [4] is listed as 2 (A450 nm 1-2).

On to `CC(C)C[C@H](NC(=O)[C@H](C)NC(=O)[C@H](CO)NC(=O)CNC(=O)[C@@H](NC(=O)CCCC[C@@H]1SC[C@@H]2NC(=O)N[C@@H]21)[C@@H](C)O)C(=O)N[C@@H](CCC(N)=O)C(=O)N[C@@H](C)C(=O)N[C@@H](Cc1c[nH]c2ccccc12)C(=O)N[C@@H](CCCNC(=N)N)C(=O)N[C@@H](Cc1c[nH]cn1)C(=O)N[C@H](C(=O)N[C@@H](CO)C(=O)N[C@@H](CCCNC(=N)N)C(=O)N[C@@H](CCC(N)=O)C(=O)N[C@@H](C)C(=O)N[C@H](C(=O)N[C@@H](CCC(=O)O)C(=O)N[C@@H](CO)C(=O)N[C@H](C(=O)N[C@H](C(=O)O)C(C)C)[C@@H](C)O)[C@@H](C)O)[C@@H](C)O` [HPV E6 #66 (modified)] (Biotin-TGSALQAWRHTSRQATESTV-OH; C-terminus assumed), for which the Classification in test [2] was 2 (A450 nm 1-2).

Regarding “KTMPAATYRLLTGQEQPVYL (Biotin-KTMPAATYRLLTGQEQPVYL) [MINT-3]”, the Classification in test [5] and in test [4] was 1 (A450 nm 0-1) throughout.

In the case of `CC[C@H](C)[C@H](NC(=O)[C@H](CCC(N)=O)NC(=O)CCCC[C@@H]1SC[C@@H]2NC(=O)N[C@@H]21)C(=O)N[C@@H](CO)C(=O)N1CCC[C@H]1C(=O)NCC(=O)NCC(=O)N[C@@H](CC(C)C)C(=O)N[C@@H](CCC(=O)O)C(=O)N1CCC[C@H]1C(=O)N1CCC[C@H]1C(=O)N[C@@H](CO)C(=O)N[C@@H](CCC(=O)O)C(=O)N[C@@H](CCCCN)C(=O)N[C@@H](Cc1c[nH]cn1)C(=O)N[C@@H](Cc1ccccc1)C(=O)N[C@@H](CCCNC(=N)N)C(=O)N[C@@H](CCC(=O)O)C(=O)N[C@H](C(=O)N[C@@H](CCC(=O)O)C(=O)N[C@H](C(=O)O)C(C)C)[C@@H](C)O` [Tax], the results for the Classification in test [2] and in test [3] were 2 (A450 nm 1-2) and 1 (A450 nm 0-1), respectively.

For the compound “A2AC_HUMAN (Modified) (Biotin-DFRPSFKHILFRRARRGFRQ; not fully specified)”, the Classification in test [4] was 3 (A450 nm 2-3).

Regarding `CC[C@H](C)[C@H](NC(=O)[C@H](Cc1ccc(O)cc1)NC(=O)[C@@H](NC(=O)[C@@H]1CCCN1C(=O)[C@H](CCC(N)=O)NC(=O)[C@H](CCC(=O)O)NC(=O)[C@H](CCC(N)=O)NC(=O)[C@H](C)NC(=O)[C@@H](NC(=O)[C@H](CC(C)C)NC(=O)[C@H](CC(C)C)NC(=O)[C@H](CCCNC(=N)N)NC(=O)[C@H](Cc1ccc(O)cc1)NC(=O)[C@H](CCSC)NC(=O)[C@H](C)NC(=O)[C@H](C)NC(=O)[C@@H]1CCCN1C(=O)[C@H](CCSC)NC(=O)[C@@H](NC(=O)[C@H](CCCCN)NC(=O)CCCC[C@@H]1SC[C@@H]2NC(=O)N[C@@H]21)[C@@H](C)O)[C@@H](C)O)C(C)C)C(=O)O` [MINT-1] (Biotin-KTMPAAMYRLLTAQEQPVYI-OH; C-terminus assumed), the figures for the Classification in test [5] and in test [4] were 5 (A450 nm of 4 more than 2× repeated) and 2 (A450 nm 1-2), respectively.

Turning to `CC[C@H](C)[C@H](NC(=O)[C@H](CC(=O)O)NC(=O)[C@H](CCC(=O)O)NC(=O)[C@H](CCCNC(=N)N)NC(=O)[C@@H](NC(=O)CCCC[C@@H]1SC[C@@H]2NC(=O)N[C@@H]21)[C@@H](C)O)C(=O)N[C@@H](Cc1ccc(O)cc1)C(=O)N[C@H](C(=O)N[C@@H](CC(N)=O)C(=O)N[C@@H](Cc1ccc(O)cc1)C(=O)N1CCC[C@H]1C(=O)N[C@H](C(=O)N[C@@H](Cc1ccccc1)C(=O)N[C@@H](CO)C(=O)N[C@@H](CCCNC(=N)N)C(=O)N[C@@H](CCCNC(=N)N)C(=O)N1CCC[C@H]1C(=O)N[C@@H](CCCCN)C(=O)N[C@H](C(=O)N[C@@H](CCCNC(=N)N)C(=O)N[C@H](C(=O)O)C(C)C)[C@@H](C)O)[C@@H](C)O)C(C)C` [DNAM-1] (Biotin-TREDIYVNYPTFSRRPKTRV-OH; C-terminus assumed), the Classification in test [6] is reported as 2 (A450 nm 1-2); in test [7], 4 (A450 nm 3-4).

For `CC(C)C[C@H](NC(=O)[C@H](C)NC(=O)[C@@H](NC(=O)[C@@H](NC(=O)[C@H](Cc1c[nH]cn1)NC(=O)[C@H](CC(C)C)NC(=O)CNC(=O)[C@H](CCC(N)=O)NC(=O)CNC(=O)CNC(=O)[C@H](C)NC(=O)[C@H](C)NC(=O)[C@H](CCCNC(=N)N)NC(=O)[C@H](C)NC(=O)[C@H](CO)NC(=O)[C@H](CC(=O)O)NC(=O)[C@H](CC(=O)O)NC(=O)[C@H](Cc1c[nH]c2ccccc12)NC(=O)[C@H](C)NC(=O)CCCC[C@@H]1SC[C@@H]2NC(=O)N[C@@H]21)C(C)C)[C@@H](C)O)C(=O)O` [LPAP] (Biotin-AWDDSARAAGGQGLHVTAL-OH; C-terminus assumed), the values for the Classification in test [6] and in test [7] were 3 (A450 nm 2-3) and 1 (A450 nm 0-1), respectively.

On to “ELLQFCRTPNPALKNGQYWV (Biotin-ELLQFCRTPNPALKNGQYWV)”, for which the Classification in test [5] is 3 (A450 nm 2-3); in test [4], 5 (A450 nm of 4 more than 2× repeated); in test [3], 2 (A450 nm 1-2).

On to `CC[C@H](C)[C@H](NC(=O)[C@H](Cc1ccc(O)cc1)NC(=O)[C@H](CC(C)C)NC(=O)[C@H](CCC(N)=O)NC(=O)[C@H](Cc1c[nH]cn1)NC(=O)[C@H](CO)NC(=O)[C@H](C)NC(=O)[C@H](CC(C)C)NC(=O)[C@@H](NC(=O)[C@H](CC(=O)O)NC(=O)[C@H](CCSC)NC(=O)[C@H](Cc1ccccc1)NC(=O)[C@@H]1CCCN1C(=O)[C@H](CCCNC(=N)N)NC(=O)[C@@H](NC(=O)[C@H](CC(C)C)NC(=O)[C@H](CC(N)=O)NC(=O)[C@H](CC(=O)O)NC(=O)[C@@H](NC(=O)[C@H](CO)NC(=O)CCCC[C@@H]1SC[C@@H]2NC(=O)N[C@@H]21)[C@@H](C)O)C(C)C)[C@@H](C)O)C(=O)O` [presenilin-2] (Biotin-STDNLVRPFMDTLASHQLYI-OH; C-terminus assumed), for which the Classification is 5 (A450 nm of 4 more than 2× repeated) in test [5] and 1 (A450 nm 0-1) in test [4].

Regarding “PPATPSPRLALPAHHNATRL (Biotin-PPATPSPRLALPAHHNATRL) [Na+/Pi cotransporter 2]”, the Classification in test [6] is given as 5 (A450 nm of 4 more than 2× repeated); in test [7], 1 (A450 nm 0-1).

“KTMPAAMFRLLTGQETPLYI (Biotin-KTMPAAMFRLLTGQETPLYI) [MINT-2]”: the values for the Classification in test [5] and in test [4] were 5 (A450 nm of 4 more than 2× repeated) and 2 (A450 nm 1-2), respectively.
